According to US20250228873A1, “C25 R AND S ISOMERS OF AMINOSTEROLS AND METHODS OF MAKING AND USING THE SAME” (Enterin, Inc., priority 2022, published 2025):
Where two headings read alike, the source gives them in different places.

How the values were obtained:
Experiment in all cases: Phosphatase panel, DiFMUP fluorescence assay
Format in all cases: biochemical
[1] = molecular target: T1, PP2A Alpha/PP2R1A Complex (Homo sapiens, UniProt P67775)
T1 construct: purchased Recation Biology Inc

PTPRC/CD45 = molecular target: T2, PTPRC/CD45 (Homo sapiens, UniProt P08575)
T2 construct: purchased Recation Biology Inc
T2 sequence (P08575 26-1306): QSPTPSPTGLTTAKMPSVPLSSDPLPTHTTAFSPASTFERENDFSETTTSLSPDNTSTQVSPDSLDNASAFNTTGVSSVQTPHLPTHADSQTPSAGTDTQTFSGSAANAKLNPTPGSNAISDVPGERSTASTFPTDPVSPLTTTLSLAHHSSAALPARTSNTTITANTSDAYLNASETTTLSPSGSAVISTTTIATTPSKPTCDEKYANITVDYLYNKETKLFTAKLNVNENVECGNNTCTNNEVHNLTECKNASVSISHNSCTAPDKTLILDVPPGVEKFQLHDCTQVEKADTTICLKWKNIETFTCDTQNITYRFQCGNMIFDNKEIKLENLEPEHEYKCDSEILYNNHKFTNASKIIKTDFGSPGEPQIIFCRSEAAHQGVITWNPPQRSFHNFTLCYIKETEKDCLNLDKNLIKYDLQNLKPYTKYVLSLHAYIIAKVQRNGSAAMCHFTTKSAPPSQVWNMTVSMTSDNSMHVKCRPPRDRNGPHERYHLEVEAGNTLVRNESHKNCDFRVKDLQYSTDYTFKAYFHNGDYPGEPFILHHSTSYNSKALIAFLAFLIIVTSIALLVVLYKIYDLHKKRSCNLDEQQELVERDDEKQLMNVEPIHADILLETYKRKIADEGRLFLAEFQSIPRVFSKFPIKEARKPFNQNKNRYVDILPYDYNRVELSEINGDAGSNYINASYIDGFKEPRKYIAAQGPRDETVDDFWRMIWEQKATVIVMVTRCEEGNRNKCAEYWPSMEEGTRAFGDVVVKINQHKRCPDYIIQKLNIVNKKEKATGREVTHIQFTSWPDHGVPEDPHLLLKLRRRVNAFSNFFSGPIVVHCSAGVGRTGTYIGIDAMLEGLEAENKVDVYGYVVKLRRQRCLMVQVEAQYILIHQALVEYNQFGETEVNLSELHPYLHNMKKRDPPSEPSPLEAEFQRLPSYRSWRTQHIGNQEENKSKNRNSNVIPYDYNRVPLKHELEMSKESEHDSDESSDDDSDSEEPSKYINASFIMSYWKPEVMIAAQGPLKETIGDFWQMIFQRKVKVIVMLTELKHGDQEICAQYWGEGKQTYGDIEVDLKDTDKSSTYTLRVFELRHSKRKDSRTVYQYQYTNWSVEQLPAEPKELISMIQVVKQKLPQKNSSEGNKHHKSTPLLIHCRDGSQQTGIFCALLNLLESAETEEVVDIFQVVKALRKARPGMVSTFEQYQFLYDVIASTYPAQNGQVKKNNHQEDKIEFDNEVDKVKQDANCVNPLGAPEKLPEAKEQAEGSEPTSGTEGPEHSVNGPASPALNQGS

DUSP22/MKPX = molecular target: T3, DUSP22/MKPX (Homo sapiens, UniProt Q9NRW4)
T3 construct: purchased Recation Biology Inc
T3 sequence (Q9NRW4 1-184): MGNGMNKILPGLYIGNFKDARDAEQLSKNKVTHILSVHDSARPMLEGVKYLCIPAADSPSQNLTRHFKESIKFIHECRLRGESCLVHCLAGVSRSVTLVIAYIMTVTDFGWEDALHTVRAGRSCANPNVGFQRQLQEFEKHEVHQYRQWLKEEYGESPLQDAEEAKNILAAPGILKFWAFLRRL

PTPN12/PTP-PEST = molecular target: T4, PTPN12/PTP-PEST (Homo sapiens, UniProt Q05209)
T4 construct: purchased Recation Biology Inc
T4 sequence (Q05209 1-780): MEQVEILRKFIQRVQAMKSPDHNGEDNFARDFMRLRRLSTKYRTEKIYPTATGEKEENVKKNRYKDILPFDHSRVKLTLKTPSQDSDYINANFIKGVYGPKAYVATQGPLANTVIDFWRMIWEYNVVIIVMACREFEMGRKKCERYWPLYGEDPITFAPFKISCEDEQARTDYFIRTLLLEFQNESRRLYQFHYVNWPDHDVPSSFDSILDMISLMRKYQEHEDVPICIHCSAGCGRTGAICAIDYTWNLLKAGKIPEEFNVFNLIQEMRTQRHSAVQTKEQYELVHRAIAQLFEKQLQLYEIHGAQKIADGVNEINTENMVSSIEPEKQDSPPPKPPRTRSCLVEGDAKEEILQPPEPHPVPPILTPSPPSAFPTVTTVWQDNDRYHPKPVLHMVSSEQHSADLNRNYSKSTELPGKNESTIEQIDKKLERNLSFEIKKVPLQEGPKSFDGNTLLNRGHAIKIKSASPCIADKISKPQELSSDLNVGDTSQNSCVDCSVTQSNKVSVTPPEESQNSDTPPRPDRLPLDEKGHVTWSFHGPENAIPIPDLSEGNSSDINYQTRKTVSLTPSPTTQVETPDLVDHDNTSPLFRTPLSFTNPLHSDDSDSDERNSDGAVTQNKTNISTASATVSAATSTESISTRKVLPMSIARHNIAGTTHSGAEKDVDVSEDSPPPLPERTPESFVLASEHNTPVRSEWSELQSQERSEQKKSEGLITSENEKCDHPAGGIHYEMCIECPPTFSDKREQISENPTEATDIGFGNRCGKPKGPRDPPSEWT

[2] = Table 5B, read-out: Compound IC50 (M) PP2A Alpha/PP2R1A Complex
[3] = Table 5B, read-out: Compound IC50 (M) PTPRC/CD45
[4] = Table 5B, read-out: Compound IC50 (M) DUSP22/MKPX
[5] = Table 5C, read-out: Compound IC50 (M) PTPN12/PTP-PEST
[6] = Table 19A, read-out: inhibitory activity PP2A Alpha/PP2R1A Complex
[7] = Table 19A, read-out: inhibitory activity PTPRC/CD45
[8] = Table 19A, read-out: inhibitory activity DUSP22/MKPXPT
[9] = Table 19B, read-out: inhibitory activity PTPN12/PTP-PEST

T1 sequence (P67775 whole entry): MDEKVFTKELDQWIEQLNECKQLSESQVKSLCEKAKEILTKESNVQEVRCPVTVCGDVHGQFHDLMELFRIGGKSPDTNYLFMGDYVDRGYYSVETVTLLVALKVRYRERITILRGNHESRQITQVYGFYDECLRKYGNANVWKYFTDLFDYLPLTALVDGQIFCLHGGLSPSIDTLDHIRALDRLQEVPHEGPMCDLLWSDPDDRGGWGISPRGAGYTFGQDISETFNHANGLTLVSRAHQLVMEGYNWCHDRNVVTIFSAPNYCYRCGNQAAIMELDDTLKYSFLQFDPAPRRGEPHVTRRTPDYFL
T1 sequence (P30153 whole entry partner): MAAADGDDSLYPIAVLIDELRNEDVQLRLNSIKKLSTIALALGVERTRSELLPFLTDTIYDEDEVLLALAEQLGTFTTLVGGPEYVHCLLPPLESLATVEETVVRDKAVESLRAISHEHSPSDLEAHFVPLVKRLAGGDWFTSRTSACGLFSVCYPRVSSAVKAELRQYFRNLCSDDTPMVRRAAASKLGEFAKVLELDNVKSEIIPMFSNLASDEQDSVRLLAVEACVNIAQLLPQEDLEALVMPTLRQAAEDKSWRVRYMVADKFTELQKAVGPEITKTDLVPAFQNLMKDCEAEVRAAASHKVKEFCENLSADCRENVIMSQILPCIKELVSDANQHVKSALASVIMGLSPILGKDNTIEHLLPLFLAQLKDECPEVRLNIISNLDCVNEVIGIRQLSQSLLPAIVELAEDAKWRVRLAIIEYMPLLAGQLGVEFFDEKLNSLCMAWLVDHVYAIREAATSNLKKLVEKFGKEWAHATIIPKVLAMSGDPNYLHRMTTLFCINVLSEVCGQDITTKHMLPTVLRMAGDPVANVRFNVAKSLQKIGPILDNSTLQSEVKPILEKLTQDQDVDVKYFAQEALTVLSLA

Compound: CC(C)[C@@H](CC[C@@H](C)[C@H]1CC[C@H]2[C@@H]3[C@H](O)C[C@H]4C[C@@H](NCCCNCCCCNCCCN)CC[C@]4(C)[C@H]3CC[C@]12C)OS(=O)(=O)O (single isomer, unassigned) [ENT-02 (MSI-1436), trodusquemine]
- IC50 [1, 2]: 5.72e-05 M
- IC50 (PTPRC/CD45; [3]): 4.94e-07 M
- IC50 (DUSP22/MKPX; [4]): 6.39e-07 M
- IC50 (PTPN12/PTP-PEST; [5]): 1.72e-06 M

Compound: CC(CCC[C@@H](C)[C@H]1CCC2C3C(CC[C@@]21C)[C@@]1(C)CC[C@H](NCCCNCCCCNCCCN)C[C@@H]1C[C@H]3O)C(=O)O (single isomer, unassigned) [ENT-03]
- activity at PP2 Å alpha [1]: inactive
- IC50 [1, 2]: > 0.0001 M
- IC50 [1, 6]: > 0.0001 M
- IC50 (PTPRC/CD45; [3]): 5.71e-07 M
- IC50 (PTPRC/CD45; [7]): 5.17e-07 M
- IC50 (DUSP22/MKPX; [4]): 1.38e-06 M
- IC50 (DUSP22/MKPX; [8]): 1.38e-06 M
- IC50 (PTPN12/PTP-PEST; [5]): 8.61e-07 M
- IC50 (PTPN12/PTP-PEST; [9]): 8.61e-07 M

Compound: CC(CCC[C@@H](C)[C@H]1CCC2C3C(CC(O)[C@@]21C)[C@@]1(C)CC[C@H](NCCCNCCCCN)C[C@@H]1C[C@H]3O)C(=O)O (single isomer, unassigned) [ENT-05]
- IC50 ([1]; Table 18A, read-out: inhibitory activity PP2A Alpha/PP2R1A Complex): 3.8e-06 M
- IC50 (PTPRC/CD45; Table 18A, read-out: inhibitory activity PTPRC/CD45): > 0.0001 M
- IC50 (DUSP22/MKPX; Table 18A, read-out: inhibitory activity DUSP22/MKPX): > 0.0001 M
- IC50 (PTPN12/PTP-PEST; Table 18B, read-out: inhibitory activity PTPN12/PTP-PEST): > 0.0001 M

Compound: CC(CCC[C@@H](C)[C@H]1CCC2C3C(CC[C@@]21C)[C@@]1(C)CC[C@H](NCCCNCCCCN)C[C@@H]1C[C@H]3O)C(=O)O (single isomer, unassigned) [ENT-06]
- IC50 [1, 6]: > 0.0001 M
- IC50 (PTPRC/CD45; [7]): 1.22e-06 M
- IC50 (DUSP22/MKPX; [8]): 2.09e-06 M
- IC50 (PTPN12/PTP-PEST; [9]): 8.62e-07 M
